From PubChem BioAssay AID1963982 (Molecular Pharmacology Branch, DTP, NCI, 2024)
“And” between values parts separate entries of the source, which are not always exact repeats. Equal values may be shown once.

Test system: 313798-341-R-J2-PDC spheroids, viability
Assay: Anticancer human tumor 313798-341-R-J2-PDC patient-derived cervical squamous cell carcinoma cell line growth inhibition [PI3K]
Details: spheroids with HUVEC and MSC; for viability, T/C: stronger effect = lower value
From the text: Combinatorial screen of targeted agents with the PI3K inhibitors inavolisib, alpelisib, duvelisib, and copanlisib in multi-cell type tumor spheroids
A high-throughput screen of multi-cell type tumor spheroids was designed to identify active combinations of targeted small molecules and PI3K pathway inhibitors. Complex spheroids include a stromal component modeled by human endothelial cells (HUVEC) and fibroblasts modeled by human mesenchymal stem cells (MSCs). The concentration ranges selected for each drug and investigational agent were based upon clinically achievable concentrations if the clinical Cmax of the agent was known.
Compounds. The drugs and investigational agents: inavolisib (NSC800729), alpelisib (NSC765974), duvelisib (NSC772469), copanlisib (NSC816437), ipatasertib (NSC767898), afuresertib (NSC778305), talazoparib (NSC767125), sapanisertib (NSC764658), selumetinib (NSC741078), tovorafenib (DAY101, NSC766906), vemurafenib (NSC761431), ravoxertinib (NSC781343), sotorasib (NSC818433), MRTX1133 (NSC 836407), abemaciclib (NSC 768073), palbociclib (NSC758247), venetoclax (NSC 766270), SY5609 (NSC837396), enzalutamide (NSC755605), and darolutamide (NSC825331), were obtained from the National Cancer Institute (NCI) Developmental Therapeutics Program Chemical Repository. The FDA-approved anticancer drug set is available from the NCI Developmental Therapeutics Program. […] The stock solutions were prepared in dimethyl sulfoxide (DMSO, Sigma-Aldrich, St. Louis, MO, cat. D2650) at 800-fold the tested concentration and stored at -70 degrees C prior to their use. All drugs and investigational agents were tested over a range starting from a high concentration at or near the clinical Cmax and decreasing in half-log increments. If the clinical Cmax for an agent had not been determined, the highest concentration tested was 10 microM.
Cell Culture. All cells were maintained in an incubator at 37 degrees C and 5% CO2 with 95% humidity. The PDC lines were cultured according to standard operating procedures established by the NCI PDMR (https://pdmr.cancer.gov/sops/default.htm). All PDCs were thawed and cultured in Matrigel-coated flasks prepared with a working solution of 1X Ham's F-12 nutrient mix, without supplementation (Invitrogen, Waltham, MA, cat. 11765054), 100 U/mL penicillin-streptomycin (Invitrogen, cat. 15140122), and 2.5% Matrigel (Corning Inc., Corning, NY, cat. 354248) for the first three passages. The 354836-022-R-J1-PDC, 475296-252-R-J1-PDC, and 997726-040-R-J2-PDC lines were cultured in 6A media, which includes advanced DMEM/F-12 (Thermo Fisher Scientific, cat. 12634028), 10 mM HEPES (Thermo Fisher Scientific, cat. 15630080), 1X GlutaMAX supplement (Thermo Fisher Scientific, cat. 35050061), 0.1 mg/mL primocin (InvivoGen, San Diego, CA, cat. ant-pm-2), 10% defined fetal bovine serum, heat inactivated (HyClone Laboratories Inc., Logan, UT, cat. SH30070.03HI), 50% L-WRN conditioned media (ATCC, cat. CRL-3276), 1.25 mM N-Acetyl-L-cysteine (Sigma-Aldrich, cat. A9165), 10 mM nicotinamide (Sigma-Aldrich, cat. N0636), 1X B-27 supplement (Thermo Fisher Scientific, cat. 17504044), 1X N-2 supplement (Thermo Fisher Scientific, cat. 17502048), and 10 microM Y-27632 dihydrochloride (Tocris Bioscience, Bristol, United Kingdom, cat. 1254). The 624824-186-R-J2-PDC line was cultured in 6C/Colon 1B media, which includes all 6A media components plus 50 ng/mL human EGF recombinant protein (Thermo Fisher Scientific, cat. PHG0311). […]
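Also: spheroids exposed to compounds for seven days.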
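For viability, T/C in this document: 100% = DMSO vehicle control viability.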

CC(C)n1nc(-c2ccc3oc(N)nc3c2)c2c(N)ncnc21 + CC(Nc1ccc2c(c1)OCCn1cc(N3C(=O)OCC3C(F)F)nc1-2)C(N)=O
IC50 (curve of first compound, second compound 0.00316 µM): 70.2 nM
IC50 (curve of first compound, second compound 0.01 µM): 66.3 nM
IC50 (curve of first compound, second compound 0.0316 µM): 48.8 nM
IC50 (curve of first compound, second compound 0.1 µM): 28.2 nM
IC50 (curve of first compound, second compound 0.316 µM): 14.2 nM
IC50 (curve of first compound, second compound 1 µM): 1.85 nM
viability, T/C (second compound 0.00316 µM, first compound 0.000316 µM): 90.9%
viability, T/C (second compound 0.00316 µM, first compound 0.001 µM): 99%
viability, T/C (second compound 0.00316 µM, first compound 0.00316 µM): 119%
viability, T/C (second compound 0.00316 µM, first compound 0.01 µM): 92.8%
viability, T/C (second compound 0.00316 µM, first compound 0.0316 µM): 78%
viability, T/C (second compound 0.00316 µM, first compound 0.1 µM): 37.8%
viability, T/C (second compound 0.01 µM, first compound 0.000316 µM): 83.8%
viability, T/C (second compound 0.01 µM, first compound 0.001 µM): 90.4%
viability, T/C (second compound 0.01 µM, first compound 0.00316 µM): 100%
viability, T/C (second compound 0.01 µM, first compound 0.01 µM): 103%
viability, T/C (second compound 0.01 µM, first compound 0.0316 µM): 73.2%
viability, T/C (second compound 0.01 µM, first compound 0.1 µM): 37.2%
viability, T/C (second compound 0.0316 µM, first compound 0.000316 µM): 94.6%
viability, T/C (second compound 0.0316 µM, first compound 0.001 µM): 92.3%
viability, T/C (second compound 0.0316 µM, first compound 0.00316 µM): 92.1%
viability, T/C (second compound 0.0316 µM, first compound 0.01 µM): 92.6%
viability, T/C (second compound 0.0316 µM, first compound 0.0316 µM): 60.6%
viability, T/C (second compound 0.0316 µM, first compound 0.1 µM): 32.4%
viability, T/C (second compound 0.1 µM, first compound 0.000316 µM): 95.6%
viability, T/C (second compound 0.1 µM, first compound 0.001 µM): 97.4%
viability, T/C (second compound 0.1 µM, first compound 0.00316 µM): 92.2%
viability, T/C (second compound 0.1 µM, first compound 0.01 µM): 69.3%
viability, T/C (second compound 0.1 µM, first compound 0.0316 µM): 49.6%
viability, T/C (second compound 0.1 µM, first compound 0.1 µM): 33.2%
viability, T/C (second compound 0.316 µM, first compound 0.000316 µM): 83.4%
viability, T/C (second compound 0.316 µM, first compound 0.001 µM): 70.9%
viability, T/C (second compound 0.316 µM, first compound 0.00316 µM): 64.8%
viability, T/C (second compound 0.316 µM, first compound 0.01 µM): 54.7%
viability, T/C (second compound 0.316 µM, first compound 0.0316 µM): 43.5%
viability, T/C (second compound 0.316 µM, first compound 0.1 µM): 25.1%
viability, T/C (second compound 1 µM, first compound 0.000316 µM): 55.3%
viability, T/C (second compound 1 µM, first compound 0.001 µM): 53.1%
viability, T/C (second compound 1 µM, first compound 0.00316 µM): 45%
viability, T/C (second compound 1 µM, first compound 0.01 µM): 42.1%
viability, T/C (second compound 1 µM, first compound 0.0316 µM): 32.9%
viability, T/C (second compound 1 µM, first compound 0.1 µM): 14.3%

CNC(=O)c1ccc(N2C(=S)N(c3ccc(C#N)c(C(F)(F)F)c3)C(=O)C2(C)C)cc1F
viability, T/C (compound 0.0316 µM): 104% and 102% (2×) and 89%
viability, T/C (compound 0.1 µM): 99.5% [middle of 4 runs]
viability, T/C (compound 0.316 µM): 104% [middle of 4 runs]
viability, T/C (compound 1 µM): 102% [middle of 4 runs]
viability, T/C (compound 3.16 µM): 105% [middle of 4 runs]
viability, T/C (compound 10 µM): 102% [middle of 4 runs]
IC50 (curve of compound): > 10000 nM
